Earlier results on 23 substances are cited in patent US10590413B2, “Chiral control” (WAVE LIFE SCIENCES LTD., priority 2012, dated 2020).

In one series the test system is NK Lytic Activity. As to conditions: cited from earlier work; for NK Lytic Activity (LU): human PBMC cultured with ODN 6 μg/ml for 24 hr, lysis of 51Cr-labeled K562 cells; for LU (NK lytic activity): human PBMC, ODN 6 μg/ml for 24 hr, lysis of Cr-labeled K562 cells, cells alone 0.01.
A further series has as its system human PBMC. As to conditions: cited from earlier work.
The subject of series [1] is Murine IL-6 production and B cell activation. As to conditions: cited from earlier work; for IL-6 (pg/ml) CH12.LX: CH12.LX cells; for SI (stimulation index, [3H] uridine uptake, fold increase from unstimulated control): cells stimulated with 20 μM CpG O-ODN; for SI (stimulation index, [3H] uridine uptake, fold increase from unstimulated control) / SI (stimulation index, [3H] uridine uptake): mean ± SD of triplicates; for SI (stimulation index, [3H] uridine uptake): fold increase from unstimulated control, 20 μM CpG O-ODN; for IgM: measured by ELISA, unstimulated culture 547 ± 82 ng/ml; for IL-6 (pg/ml) SPLENIC B CELL: splenic B cells. (ELISA stands for enzyme-linked immunosorbent assay.)

[2] abbreviates: ODN 12 μg/ml, 4 hr, 10% autologous serum, level above wells with no ODN, ELISA.
Where [3] appears, read: ODN 12 μg/ml, 24 hr, 10% autologous serum, level above wells with no ODN, ELISA.
[4] abbreviates: unstimulated control ≤10 pg/ml, US 6,239,116 Table 2.

Read-outs that look alike come from different tables or passages of the source.

“1823 (DNA GCATGACGTTGAGCT; chemistry not given here) [Oligonucleotide 1823]”: in the series with NK Lytic Activity, the “NK Lytic Activity (LU)” value is reported as 0.08 LU and the “LU (NK lytic activity)” value was 0.08 LU.
“1842 (DNA TCGTCGCTGTCTCCGCTTCTT; chemistry not given here) [Oligonucleotide 1842]”: in the series on NK Lytic Activity, the “NK Lytic Activity (LU)” value is 0.06 LU and the “LU (NK lytic activity)” value was 0.06 LU.
As for “1825 (DNA CTGCTGAGACTGGAG; chemistry not given here) [Oligonucleotide 1825]”, in the series with NK Lytic Activity, the “NK Lytic Activity (LU)” value is 0.01 LU and the “LU (NK lytic activity)” value is given as 0.01 LU.
Consider “1829 (DNA ATGACGTTCCTGACGTT; chemistry not given here) [Oligonucleotide 1829]”, for which, in the series on NK Lytic Activity, the “NK Lytic Activity (LU)” value was 0.42 LU and the “LU (NK lytic activity)” value is reported as 0.42 LU.
For “1776 (DNA ACCATGGACGAACTGTTTCCCCTC; chemistry not given here) [Oligonucleotide 1776]”, in the series on NK Lytic Activity, the “NK Lytic Activity (LU)” value is 0.03 LU and the “LU (NK lytic activity)” value was 0.03 LU.
Regarding “1836 (DNA TCTCCCAGCGCGCGCCAT; chemistry not given here) [Oligonucleotide 1836]”, in the series with NK Lytic Activity, the “NK Lytic Activity (LU)” value was 0.46 LU and the “LU (NK lytic activity)” value was 0.46 LU.
Take “1779 (DNA ACCATGGACGTACTGTTTCCCCTC; chemistry not given here) [Oligonucleotide 1779]”: in the series on NK Lytic Activity, the “NK Lytic Activity (LU)” value is recorded as 0.02 LU and the “LU (NK lytic activity)” value is on record as 0.02 LU.
In the case of “1824 (DNA CACGTTGAGGGGCAT; chemistry not given here) [Oligonucleotide 1824]”, in the series with NK Lytic Activity, the “NK Lytic Activity (LU)” value is recorded as 0.01 LU and the “LU (NK lytic activity)” value was 0.01 LU.
In the case of “1851 (DNA TCCTGACGTTCCTGACGTT; chemistry not given here) [Oligonucleotide 1851]”, in the series on NK Lytic Activity, the “NK Lytic Activity (LU)” value is listed as 2.32 LU and the “LU (NK lytic activity)” value was 2.32 LU.
Turning to “1636 (DNA TCCATGTCGATCCTGATGCT; chemistry not given here) [Oligonucleotide 1636]”, the TNF-α in the series with human PBMC (setting [2]) was 250 pg/mL. For the same substance, in the series on human PBMC (setting [3]), the GM-CSF was 40 pg/mL, the IFN-γ was 35 pg/mL, the IL-6 is 325 pg/mL and the IL-12 was 250 pg/mL. In the series with human PBMC, the GM-CSF was 40, the IFN-γ is reported as 35, the IL-6 was 325 and the IL-12 is 0. In addition, in the series with human PBMC, the TNF-α is 250. Moreover, in series [1], the “IL-6 (pg/ml) CH12.LX” value was 1181 ± 76 pg/mL; the “SI (stimulation index, [3H] uridine uptake, fold increase from unstimulated control)” value is listed as 5.4 ± 0.4; the “SI (stimulation index, [3H] uridine uptake)” value was 5.4 ± 0.4; the IgM was 3983 ± 485 ng/mL. Besides, in series [1], the “IL-6 (pg/ml) SPLENIC B CELL” value is 947 ± 132 pg/mL. Also, in series [1] (setting [4]), the “IL-6 (pg/ml) CH12.LX” value was 1181 ± 76 pg/mL and the “IL-6 (pg/ml) SPLENIC B CELL” value is 947 ± 132 pg/mL.
On to “1778 (DNA ACCATGGACGACCTGTTTCCCCTC; chemistry not given here) [Oligonucleotide 1778]”, for which, in the series on NK Lytic Activity, the “NK Lytic Activity (LU)” value was 0.01 LU and the “LU (NK lytic activity)” value was 0.01 LU.
As for “1780 (DNA ACCATGGACGGTCTGTTTCCCCTC; chemistry not given here) [Oligonucleotide 1780]”, in the series on NK Lytic Activity, the “NK Lytic Activity (LU)” value is recorded as 0.29 LU and the “LU (NK lytic activity)” value was 0.29 LU.
Take “1777 (DNA ACCATGGACGAGCTGTTTCCCCTC; chemistry not given here) [Oligonucleotide 1777]”: in the series on NK Lytic Activity, the “NK Lytic Activity (LU)” value is 0.05 LU and the “LU (NK lytic activity)” value was 0.05 LU.
As for “1707 (DNA TCCATGACGTCCCTGATGCT; chemistry not given here) [Oligonucleotide 1707]”, the TNF-α with human PBMC (setting [2]) is 70 pg/mL. In the series on human PBMC (setting [3]), the GM-CSF is 0 pg/mL, the IFN-γ is 17 pg/mL, the IL-6 is 300 pg/mL and the IL-12 was 70 pg/mL. Besides, in the series with human PBMC, the GM-CSF is 0, the IFN-γ is 17, the IL-6 is on record as 300 and the IL-12 was 0. The TNF-α with human PBMC is 70. For the same substance, in series [1], the “SI (stimulation index, [3H] uridine uptake, fold increase from unstimulated control)” value is 4.0 ± 0.2; the “SI (stimulation index, [3H] uridine uptake)” value is listed as 4.0 ± 0.2; the IgM is 3534 ± 217 ng/mL; the “IL-6 (pg/ml) SPLENIC B CELL” value is 1147 ± 175 pg/mL. Also, the “IL-6 (pg/ml) SPLENIC B CELL” value in series [1] (setting [4]) was 1147 ± 175 pg/mL.
In the case of “1618 (DNA TCCATGACGTTCCTGATGCT; chemistry not given here) [Oligonucleotide 1618]”, the TNF-α in the series with human PBMC (setting [2]) is 60 pg/mL. Also, in the series on human PBMC (setting [3]), the GM-CSF was 15.6 pg/mL, the IFN-γ was 15.6 pg/mL, the IL-6 is 300 pg/mL and the IL-12 is 62 pg/mL. Further, in the series with human PBMC, the GM-CSF was 15.6, the IFN-γ is recorded as 15.6, the IL-6 is 300 and the IL-12 is on record as 62. Moreover, the TNF-α in the series with human PBMC is recorded as 60. In addition, in series [1], the “IL-6 (pg/ml) CH12.LX” value was 2109 ± 291 pg/mL; the “SI (stimulation index, [3H] uridine uptake, fold increase from unstimulated control)” value is given as 12.9 ± 0.7; the “SI (stimulation index, [3H] uridine uptake)” value is listed as 12.9 ± 0.7; the IgM was 10425 ± 674 ng/mL. In series [1], the “IL-6 (pg/ml) SPLENIC B CELL” value was 2596 ± 166 pg/mL. Moreover, in series [1] (setting [4]), the “IL-6 (pg/ml) CH12.LX” value is 2109 ± 291 pg/mL and the “IL-6 (pg/ml) SPLENIC B CELL” value was 2596 ± 166 pg/mL.
On to “1754 (DNA ACCATGGACGATCTGTTTCCCCTC; chemistry not given here) [Oligonucleotide 1754]”, for which, in the series on NK Lytic Activity, the “NK Lytic Activity (LU)” value is listed as 0.02 LU and the “LU (NK lytic activity)” value is 0.02 LU.
For the substance “1637 (DNA TCCATGCCGGTCCTGATGCT; chemistry not given here) [Oligonucleotide 1637]”, in the series on human PBMC (setting [2]), the TNF-α is 16 pg/mL. Besides, in the series on human PBMC (setting [3]), the GM-CSF was 15.6 pg/mL, the IFN-γ was 7.8 pg/mL, the IL-6 is 550 pg/mL and the IL-12 was 16 pg/mL. In addition, in the series on human PBMC, the GM-CSF is 15.6, the IFN-γ is listed as 7.8, the IL-6 is reported as 550 and the IL-12 is 35. In addition, the TNF-α with human PBMC was 16. In series [1], the “IL-6 (pg/ml) CH12.LX” value is 136 ± 27 pg/mL; the “SI (stimulation index, [3H] uridine uptake, fold increase from unstimulated control)” value is recorded as 1.7 ± 0.2; the “SI (stimulation index, [3H] uridine uptake)” value is listed as 1.7 ± 0.2; the IgM was 770 ± 72 ng/mL. The “IL-6 (pg/ml) SPLENIC B CELL” value in series [1] was 46 ± 6 pg/mL. For the same substance, in series [1] (setting [4]), the “IL-6 (pg/ml) CH12.LX” value is 136 ± 27 pg/mL and the “IL-6 (pg/ml) SPLENIC B CELL” value was 46 ± 6 pg/mL.
Turning to “1708 (DNA TCCATCACGTGCCTGATGCT; chemistry not given here) [Oligonucleotide 1708]”, the TNF-α in the series on human PBMC (setting [2]) is 10 pg/mL. For the same substance, in the series with human PBMC (setting [3]), the IFN-γ is 17 pg/mL, the IL-6 was 270 pg/mL and the IL-12 is 10 pg/mL. Moreover, in the series with human PBMC, the GM-CSF is reported as 0, the IFN-γ is 17, the IL-6 is given as 270 and the IL-12 is listed as 0. Also, the TNF-α in the series with human PBMC is listed as 10. In addition, in series [1], the “SI (stimulation index, [3H] uridine uptake, fold increase from unstimulated control)” value is 1.5 ± 0.1; the “SI (stimulation index, [3H] uridine uptake)” value is reported as 1.5 ± 0.1; the IgM was 466 ± 109 ng/mL; the “IL-6 (pg/ml) SPLENIC B CELL” value is 59 ± 3 pg/mL. Also, the “IL-6 (pg/ml) SPLENIC B CELL” value in series [1] (setting [4]) was 59 ± 3 pg/mL.
Regarding “1781 (DNA ACCATGGACGTTCTGTTTCCCCTC; chemistry not given here) [Oligonucleotide 1781]”, in the series with NK Lytic Activity, the “NK Lytic Activity (LU)” value was 0.38 LU and the “LU (NK lytic activity)” value is listed as 0.38 LU.
Regarding “1834 (DNA TCTCCCAGCGGGCGCAT; chemistry not given here) [Oligonucleotide 1834]”, in the series on NK Lytic Activity, the “NK Lytic Activity (LU)” value was 0.00 LU and the “LU (NK lytic activity)” value is recorded as 0.00 LU.
As for “1828 (DNA TCAGCGTGCGCC; chemistry not given here) [Oligonucleotide 1828]”, in the series on NK Lytic Activity, the “NK Lytic Activity (LU)” value is 0.01 LU and the “LU (NK lytic activity)” value is recorded as 0.01 LU.
As for “1614 (DNA TCCATGACGGTCCTGATGCT; chemistry not given here) [Oligonucleotide 1614]”, the TNF-α in the series on human PBMC (setting [2]) is 31 pg/mL. In the series with human PBMC (setting [3]), the GM-CSF is 50 pg/mL, the IFN-γ was 0 pg/mL, the IL-6 was 550 pg/mL and the IL-12 is 31 pg/mL. In addition, in series [1], the “IL-6 (pg/ml) CH12.LX” value was 1533 ± 321 pg/mL; the “SI (stimulation index, [3H] uridine uptake, fold increase from unstimulated control)” value is 10.8 ± 0.6; the “SI (stimulation index, [3H] uridine uptake)” value is recorded as 10.8 ± 0.6; the IgM is 7558 ± 414 ng/mL. In addition, the “IL-6 (pg/ml) SPLENIC B CELL” value in series [1] was 1812 ± 103 pg/mL. Also, in series [1] (setting [4]), the “IL-6 (pg/ml) CH12.LX” value is 1533 ± 321 pg/mL and the “IL-6 (pg/ml) SPLENIC B CELL” value is 1812 ± 103 pg/mL.
Regarding “1761 (DNA TACCGCGTGCGACCCTCT; chemistry not given here) [Oligonucleotide 1761]”, in the series on NK Lytic Activity, the “NK Lytic Activity (LU)” value is listed as 0.05 LU and the “LU (NK lytic activity)” value is reported as 0.05 LU.
